22 compounds from ChEMBL document CHEMBL4049433, “Prediction of Antibiotic Interactions Using Descriptors Derived from Molecular Structure” (2017) can be followed below.

Converted amounts (≈) assume the structure as drawn.

The test deals with Escherichia coli. The test is described as follows: Antibacterial activity against Escherichia coli MG1655 measured every 15 mins for 12 hrs. In kind it is functional. To be noted: K-12 substr. MG1655.
One may read the MIC as the least concentration at which growth counts as inhibited. A higher MIC goes with weaker potency. The compound `O=c1[nH]cc(F)c(=O)[nH]1` [FLUOROURACIL] showed a minimum inhibitory concentration (MIC) of 25 µg/mL (≈ 192 µM).
With `CCn1cc(C(=O)O)c(=O)c2ccc(C)nc21` [NALIDIXIC ACID], the MIC worked out at 5 µg/mL (≈ 21.5 µM). This MIC lies about 5-fold lower than the previous one.
Under `CN(C)[C@@H]1C(O)=C(C(N)=O)C(=O)[C@@]2(O)C(O)=C3C(=O)c4c(O)cccc4[C@@](C)(O)[C@H]3C[C@@H]12` [TETRACYCLINE] stands 18 µg/mL (≈ 40.5 µM); under `CO[C@H]1/C=C/O[C@@]2(C)Oc3c(C)c(O)c4c(O)c(c(/C=N/N5CCN(C)CC5)c(O)c4c3C2=O)NC(=O)/C(C)=C\C=C\[C@H](C)[C@H](O)[C@@H](C)[C@@H](O)[C@@H](C)[C@H](OC(C)=O)[C@@H]1C` [RIFAMPIN], 2.5 µg/mL (≈ 3.04 µM).
Under `COc1cc(Cc2cnc(N)nc2N)cc(OC)c1OC` [TRIMETHOPRIM] stands 0.35 µg/mL (≈ 1.21 µM); under GENTAMICIN, 3 µg/mL; under `NC[C@H]1O[C@H](O[C@H]2[C@H](O)[C@@H](O[C@H]3O[C@H](CO)[C@@H](O)[C@H](N)[C@H]3O)[C@H](N)C[C@@H]2N)[C@H](O)[C@@H](O)[C@@H]1O` [KANAMYCIN], 14 µg/mL (≈ 28.9 µM).
Under `CN[C@H](CC(C)C)C(=O)N[C@H]1C(=O)N[C@@H](CC(N)=O)C(=O)N[C@H]2C(=O)N[C@H]3C(=O)N[C@H](C(=O)N[C@H](C(=O)O)c4cc(O)cc(O)c4-c4cc3ccc4O)[C@H](O)c3ccc(c(Cl)c3)Oc3cc2cc(c3O[C@@H]2O[C@H](CO)[C@@H](O)[C@H](O)[C@H]2O[C@H]2C[C@](C)(N)[C@H](O)[C@H](C)O2)Oc2ccc(cc2Cl)[C@H]1O` [VANCOMYCIN] stands 180 µg/mL (≈ 124 µM); under `CC[C@H]1OC(=O)[C@H](C)[C@@H](O[C@H]2C[C@@](C)(OC)[C@@H](O)[C@H](C)O2)[C@H](C)[C@@H](O[C@@H]2O[C@H](C)C[C@H](N(C)C)[C@H]2O)[C@](C)(O)C[C@@H](C)/C(=N\OCOCCOC)[C@H](C)[C@@H](O)[C@]1(C)O` [ROXITHROMYCIN], 62 µg/mL (≈ 74.1 µM).
The compound `CC[C@H]1OC(=O)[C@H](C)[C@@H](O[C@H]2C[C@@](C)(OC)[C@@H](O)[C@H](C)O2)[C@H](C)[C@@H](O[C@@H]2O[C@H](C)C[C@H](N(C)C)[C@H]2O)[C@](C)(O)C[C@@H](C)C(=O)[C@H](C)[C@@H](O)[C@]1(C)O` [ERYTHROMYCIN] came in with an MIC of 13 µg/mL (≈ 17.7 µM).
Under `Cc1onc(-c2ccccc2)c1C(=O)N[C@@H]1C(=O)N2[C@@H]1SC(C)(C)[C@@H]2C(=O)O` [OXACILLIN] stands 190 µg/mL (≈ 473 µM); under `NCC[C@H](O)C(=O)N[C@@H]1C[C@H](N)[C@@H](O[C@H]2O[C@H](CN)[C@@H](O)[C@H](O)[C@H]2O)[C@H](O)[C@H]1O[C@H]1O[C@H](CO)[C@@H](O)[C@H](N)[C@H]1O` [AMIKACIN], 4 µg/mL (≈ 6.83 µM); under `CC(=O)O[C@H]1C[C@@]2(C)[C@@H](C[C@@H](O)[C@H]3[C@@]4(C)CC[C@@H](O)[C@@H](C)[C@@H]4CC[C@@]32C)/C1=C(\CCC=C(C)C)C(=O)O` [FUSIDIC ACID], 800 µg/mL (≈ 1550 µM).
For `N=C(N)c1ccc(OCCCCCOc2ccc(C(=N)N)cc2)cc1` [PENTAMIDINE], the minimal inhibitory concentration (MIC) amounted to 100 µg/mL (≈ 294 µM).
As for `O=C1CN(/N=C/c2ccc([N+](=O)[O-])o2)C(=O)N1` [NITROFURANTOIN], the figure is 12 µg/mL (≈ 50.4 µM); as for `C/C(=C\C(=O)OCCCCCCCCC(=O)O)C[C@@H]1OC[C@H](C[C@@H]2O[C@H]2[C@@H](C)[C@H](C)O)[C@@H](O)[C@H]1O` [MUPIROCIN], 66 µg/mL (≈ 132 µM); as for `CC1(C)S[C@@H]2[C@H](NC(=O)Cc3ccccc3)C(=O)N2[C@H]1C(=O)O` [PENICILLIN G], 20 µg/mL (≈ 59.8 µM).
For `NC[C@H]1O[C@H](O[C@H]2[C@H](O)[C@@H](O[C@H]3O[C@H](CO)[C@@H](O)[C@H](N)[C@H]3O)[C@H](N)C[C@@H]2N)[C@H](N)C[C@@H]1O` [TOBRAMYCIN], the minimum inhibitory concentration (MIC) is 2.5 µg/mL (≈ 5.35 µM).
In the case of `CO[C@@]1(NC(=O)Cc2cccs2)C(=O)N2C(C(=O)O)=C(COC(N)=O)CS[C@@H]21` [CEFOXITIN], the minimal inhibitory concentration (MIC) amounted to 4.5 µg/mL (≈ 10.5 µM).
As for `CN[C@@H]1[C@H](O)[C@H](NC)[C@H]2O[C@@]3(O)C(=O)C[C@@H](C)O[C@H]3O[C@@H]2[C@H]1O` [SPECTINOMYCIN], the figure is 5.6 µg/mL (≈ 16.8 µM); as for `O=C(N[C@H](CO)[C@H](O)c1ccc([N+](=O)[O-])cc1)C(Cl)Cl` [CHLORAMPHENICOL], 5 µg/mL (≈ 15.5 µM); as for `CC[C@H]1OC(=O)[C@H](C)[C@@H](O[C@H]2C[C@@](C)(OC)[C@@H](O)[C@H](C)O2)[C@H](C)[C@@H](O[C@@H]2O[C@H](C)C[C@H](N(C)C)[C@H]2O)[C@](C)(OC)C[C@@H](C)C(=O)[C@H](C)[C@@H](O)[C@]1(C)O` [CLARITHROMYCIN], 22 µg/mL (≈ 29.4 µM).
